Experimental data taken from US4382892A, “Benzoxazine derivatives” (Daiichi Seiyaku Co., Ltd., priority 1980, dated 1983).
≈ marks a conversion by molar mass, not a printed value.

Key:
in vivo = conditions: mouse, iv
mice = mice (i.v.)
[1] = system: Klebsiella pneumoniae, 501; experiment: Antibacterial activity in vitro, MIC (Table 1); type: cell-based; conditions: dilution method on plate culture (heart infusion agar), 10^6/ml, 37° C., 18 hours, read-out: Minimum Inhibitory Concentration (MIC)
Procedure: (§1) *Determined by the standard method of the Japan Society of Chemotherapy:
(§2) dilution method on plate culture (heart infusion agar culture), 10^6
(§3) /ml of bacteria were seeded and incubated at 37° C. for 18 hours.

Proteus mirabilis, 1287 [2] = experiment: Antibacterial activity in vitro, MIC (Table 1); type: cell-based; conditions: dilution method on plate culture (heart infusion agar), 10^6/ml, 37° C., 18 hours, read-out: Minimum Inhibitory Concentration (MIC)
Procedure: as §1, §2, §3

[3] = system: Bacillus subtilis, ATCC 6633; experiment: Antibacterial activity in vitro, MIC (Table 1); type: cell-based; conditions: ATCC6633, dilution method on plate culture (heart infusion agar), 10^6/ml, 37° C., 18 hours, read-out: Minimum Inhibitory Concentration (MIC)
Procedure: as §1, §2, §3

[4] = system: Enterobacter cloacae, 12001; experiment: Antibacterial activity in vitro, MIC (Table 1); type: cell-based; conditions: read-out: Minimum Inhibitory Concentration (MIC)
Procedure: as §1, §2, §3

Escherichia coli NIHJ [5] = experiment: Antibacterial activity in vitro, MIC (Table 1); type: cell-based; conditions: read-out: Minimum Inhibitory Concentration (MIC)
Procedure: as §1, §2, §3

[6] = system: Shigella flexneri 2a, 5503; experiment: Antibacterial activity in vitro, MIC (Table 1); type: cell-based; conditions: dilution method on plate culture (heart infusion agar), 10^6/ml, 37° C., 18 hours, read-out: Minimum Inhibitory Concentration (MIC)
Procedure: as §1, §2, §3

Proteus vulgaris, 3167 [7] = experiment: Antibacterial activity in vitro, MIC (Table 1); type: cell-based; conditions: read-out: Minimum Inhibitory Concentration (MIC)
Procedure: as §1, §2, §3

[8] = system: Pseudomonas aeruginosa, 2063; experiment: Antibacterial activity in vitro, MIC (Table 1); type: cell-based; conditions: dilution method on plate culture (heart infusion agar), 10^6/ml, 37° C., 18 hours, read-out: Minimum Inhibitory Concentration (MIC)
Procedure: as §1, §2, §3

[9] = system: Staphylococcus aureus, 209 P; experiment: Antibacterial activity in vitro, MIC (Table 1); type: cell-based; conditions: dilution method on plate culture (heart infusion agar), 10^6/ml, 37° C., 18 hours, read-out: Minimum Inhibitory Concentration (MIC)
Procedure: as §1, §2, §3

[10] = system: Streptococcus pyogenes, G-36; experiment: Antibacterial activity in vitro, MIC (Table 1); type: cell-based; conditions: G36, dilution method on plate culture (heart infusion agar), 10^6/ml, 37° C., 18 hours, read-out: Minimum Inhibitory Concentration (MIC)
Procedure: as §1, §2, §3

[11] = system: Serratia marcescens, 13001; experiment: Antibacterial activity in vitro, MIC (Table 1); type: cell-based; conditions: dilution method on plate culture (heart infusion agar), 10^6/ml, 37° C., 18 hours, read-out: Minimum Inhibitory Concentration (MIC)
Procedure: as §1, §2, §3

[12] = system: Klebsiella pneumoniae, 501; experiment: Antibacterial activity in vitro, MIC (Table 2); type: cell-based; conditions: MullerHinton Bouillon, 10^6/ml, 37° C., 18 hours, read-out: Minimum Inhibitory Concentration (MIC)
Procedure: (§4) *Determined in MullerHinton Bouillon, 10^6 /ml of bacteria were seede
(§5) and incubated at 37° C. for 18 hours.

Proteus mirabilis, 1287 [13] = experiment: Antibacterial activity in vitro, MIC (Table 2); type: cell-based; conditions: MullerHinton Bouillon, 10^6/ml, 37° C., 18 hours, read-out: Minimum Inhibitory Concentration (MIC)
Procedure: as §4, §5

[14] = system: Bacillus subtilis, ATCC 6633; experiment: Antibacterial activity in vitro, MIC (Table 2); type: cell-based; conditions: ATCC6633, MullerHinton Bouillon, 10^6/ml, 37° C., 18 hours, read-out: Minimum Inhibitory Concentration (MIC)
Procedure: as §4, §5

[15] = system: Enterobacter cloacae, 12001; experiment: Antibacterial activity in vitro, MIC (Table 2); type: cell-based; conditions: MullerHinton Bouillon, 10^6/ml, 37° C., 18 hours, read-out: Minimum Inhibitory Concentration (MIC)
Procedure: as §4, §5

[16] = system: Pseudomonas sepacia, II D 5132; experiment: Antibacterial activity in vitro, MIC (Table 2); type: cell-based; conditions: IID5132, MullerHinton Bouillon, 10^6/ml, 37° C., 18 hours, read-out: Minimum Inhibitory Concentration (MIC)
Procedure: as §4, §5

Escherichia coli NIHJ [17] = experiment: Antibacterial activity in vitro, MIC (Table 2); type: cell-based; conditions: MullerHinton Bouillon, 10^6/ml, 37° C., 18 hours, read-out: Minimum Inhibitory Concentration (MIC)
Procedure: as §4, §5

[18] = system: Shigella flexneri 2a, 5503; experiment: Antibacterial activity in vitro, MIC (Table 2); type: cell-based; conditions: MullerHinton Bouillon, 10^6/ml, 37° C., 18 hours, read-out: Minimum Inhibitory Concentration (MIC)
Procedure: as §4, §5

Proteus vulgaris, 3167 [19] = experiment: Antibacterial activity in vitro, MIC (Table 2); type: cell-based; conditions: MullerHinton Bouillon, 10^6/ml, 37° C., 18 hours, read-out: Minimum Inhibitory Concentration (MIC)
Procedure: as §4, §5

[20] = system: Pseudomonas aeruginosa, 2063; experiment: Antibacterial activity in vitro, MIC (Table 2); type: cell-based; conditions: MullerHinton Bouillon, 10^6/ml, 37° C., 18 hours, read-out: Minimum Inhibitory Concentration (MIC)
Procedure: as §4, §5

[21] = system: Staphylococcus aureus, 209 P; experiment: Antibacterial activity in vitro, MIC (Table 2); type: cell-based; conditions: MullerHinton Bouillon, 10^6/ml, 37° C., 18 hours, read-out: Minimum Inhibitory Concentration (MIC)
Procedure: as §4, §5

[22] = system: Streptococcus pyogenes, G-36; experiment: Antibacterial activity in vitro, MIC (Table 2); type: cell-based; conditions: G36, MullerHinton Bouillon, 10^6/ml, 37° C., 18 hours, read-out: Minimum Inhibitory Concentration (MIC)
Procedure: as §4, §5

[23] = system: Serratia marcescens, 13001; experiment: Antibacterial activity in vitro, MIC (Table 2); type: cell-based; conditions: MullerHinton Bouillon, 10^6/ml, 37° C., 18 hours, read-out: Minimum Inhibitory Concentration (MIC)
Procedure: as §4, §5

[24] = system: Pseudomonas sepacia, II D 1340; experiment: Antibacterial activity in vitro, MIC (Table 1); type: cell-based; conditions: IID1340, dilution method on plate culture (heart infusion agar), 10^6/ml, 37° C., 18 hours, read-out: Minimum Inhibitory Concentration (MIC)
Procedure: as §1, §2, §3

[25] = system: gram-negative and gram-positive bacteria (test organisms); experiment: Antibacterial activity (in vitro), comparison in words; type: cell-based; conditions: compounds of this invention versus known compounds / PPA
Procedure: as §1, §2, §3, §4, §5

[26] = Enterobacter cloacae, 12001, dilution method on plate culture (heart infusion agar), 10^6/ml, 37° C., 18 hours
[27] = Escherichia coli NIHJ, dilution method on plate culture (heart infusion agar), 10^6/ml, 37° C., 18 hours
[28] = Proteus vulgaris, 3167, dilution method on plate culture (heart infusion agar), 10^6/ml, 37° C., 18 hours

CC1CCc2c(N3CCN(C)CC3)c(F)cc3c(=O)c(C(=O)O)cn1c23 (stereo not drawn) [8-(4-methyl-1-piperazinyl)-9-fluoro-5-methyl-6,7-dihydro-1-oxo-1H,5H-benz[ij]quinolizine-2-carboxylic acid, reference compound]
LD50 (in vivo): 135 mg/kg | toxicity (in words) (mice): comparatively high toxicity

CC1COc2c(N3CCN(C)CC3)c(F)cc3c(=O)c(C(=O)O)cn1c23 (stereo not drawn) [Ia, 9-fluoro-10-(4-methyl-1-piperazinyl)-3-methyl-7-oxo-2,3-dihydro-7H-pyrido[1,2,3-de][1,4]benzoxazine-6-carboxylic acid]
LD50 (in vivo): 380 mg/kg | MIC [1]: 0.2 µg/mL (≈ 0.553 µM) | MIC (Proteus mirabilis, 1287 [2]): 0.1 µg/mL (≈ 0.277 µM) | MIC [3]: 0.2 µg/mL (≈ 0.553 µM) | MIC [4, 26]: 0.1 µg/mL (≈ 0.277 µM) | MIC (Escherichia coli NIHJ [5]; [27]): ≤ 0.025 µg/mL | MIC [6]: 0.05 µg/mL (≈ 0.138 µM) | MIC (Proteus vulgaris, 3167 [7]; [28]): 0.05 µg/mL (≈ 0.138 µM) | MIC [8]: 1.56 µg/mL (≈ 4.32 µM) | MIC [9]: 0.39 µg/mL (≈ 1.08 µM) | MIC [10]: 1.56 µg/mL (≈ 4.32 µM) | MIC [11]: 0.2 µg/mL (≈ 0.553 µM) | MIC [12]: 0.39 µg/mL (≈ 1.08 µM) | MIC (Proteus mirabilis, 1287 [13]): 0.1 µg/mL (≈ 0.277 µM) | MIC [14]: 0.1 µg/mL (≈ 0.277 µM) | MIC [15]: 0.1 µg/mL (≈ 0.277 µM) | MIC [16]: 12.5 µg/mL (≈ 34.6 µM) | MIC (Escherichia coli NIHJ [17]): ≤ 0.05 µg/mL | MIC [18]: ≤ 0.05 µg/mL | MIC (Proteus vulgaris, 3167 [19]): ≤ 0.05 µg/mL | MIC [20]: 0.78 µg/mL (≈ 2.16 µM) | MIC [21]: 0.39 µg/mL (≈ 1.08 µM) | MIC [22]: 1.56 µg/mL (≈ 4.32 µM) | MIC [23]: 0.1 µg/mL (≈ 0.277 µM)

CC1COc2c(N3CCNCC3)c(F)cc3c(=O)c(C(=O)O)cn1c23 (stereo not drawn) [Ib, 9-fluoro-3-methyl-7-oxo-10-(1-piperazinyl)-2,3-dihydro-7H-pyrido[1,2,3-de][1,4]benzoxazine-6-carboxylic acid]
MIC [1]: 0.39 µg/mL (≈ 1.12 µM) | MIC (Proteus mirabilis, 1287 [2]): 0.1 µg/mL (≈ 0.288 µM) | MIC [3]: 0.39 µg/mL (≈ 1.12 µM) | MIC [4, 26]: 0.2 µg/mL (≈ 0.576 µM) | MIC [24]: 12.5 µg/mL (≈ 36 µM) | MIC (Escherichia coli NIHJ [5]; [27]): ≤ 0.025 µg/mL | MIC [6]: 0.05 µg/mL (≈ 0.144 µM) | MIC (Proteus vulgaris, 3167 [7]; [28]): 0.05 µg/mL (≈ 0.144 µM) | MIC [8]: 0.78 µg/mL (≈ 2.25 µM) | MIC [9]: 0.39 µg/mL (≈ 1.12 µM) | MIC [10]: 3.13 µg/mL (≈ 9.01 µM) | MIC [11]: 0.78 µg/mL (≈ 2.25 µM)

CC1COc2c(N3CCC(O)C3)c(F)cc3c(=O)c(C(=O)O)cn1c23 (stereo not drawn) [Ic, 9-fluoro-10-(3-hydroxy-1-pyrrolidinyl)-3-methyl-7-oxo-2,3-dihydro-7H-pyrido[1,2,3-de][1,4]benzoxazine-6-carboxylic acid]
MIC [1]: 0.78 µg/mL (≈ 2.24 µM) | MIC (Proteus mirabilis, 1287 [2]): 0.1 µg/mL (≈ 0.287 µM) | MIC [3]: 0.05 µg/mL (≈ 0.144 µM) | MIC [4, 26]: 0.2 µg/mL (≈ 0.574 µM) | MIC (Escherichia coli NIHJ [5]; [27]): 0.05 µg/mL (≈ 0.144 µM) | MIC [6]: 0.1 µg/mL (≈ 0.287 µM) | MIC (Proteus vulgaris, 3167 [7]; [28]): 0.1 µg/mL (≈ 0.287 µM) | MIC [8]: 1.56 µg/mL (≈ 4.48 µM) | MIC [9]: 0.1 µg/mL (≈ 0.287 µM) | MIC [10]: 0.78 µg/mL (≈ 2.24 µM) | MIC [11]: 0.78 µg/mL (≈ 2.24 µM)

CC1COc2c(N3CCN(C)CC3)c(Cl)cc3c(=O)c(C(=O)O)cn1c23 (stereo not drawn) [Id, 9-chloro-3-methyl-10-(4-methyl-1-piperazinyl)-7-oxo-2,3-dihydro-7H-pyrido[1,2,3-de][1,4]benzoxazine-6-carboxylic acid]
MIC [12]: 0.2 µg/mL (≈ 0.529 µM) | MIC (Proteus mirabilis, 1287 [13]): 0.1 µg/mL (≈ 0.265 µM) | MIC [14]: 0.1 µg/mL (≈ 0.265 µM) | MIC [15]: ≤ 0.05 µg/mL | MIC [16]: 6.25 µg/mL (≈ 16.5 µM) | MIC (Escherichia coli NIHJ [17]): ≤ 0.05 µg/mL | MIC [18]: ≤ 0.05 µg/mL | MIC (Proteus vulgaris, 3167 [19]): ≤ 0.05 µg/mL | MIC [20]: 0.78 µg/mL (≈ 2.06 µM) | MIC [21]: 0.2 µg/mL (≈ 0.529 µM) | MIC [22]: 12.5 µg/mL (≈ 33.1 µM) | MIC [23]: 0.1 µg/mL (≈ 0.265 µM)

CCn1cc(C(=O)O)c(=O)c2cnc(N3CCNCC3)nc21 [PPA, 8-ethyl-5,8-dihydro-5-oxo-2-(1-piperazinyl)-pyrido[2,3-d]pyrimidine-6-carboxylic acid, reference compound]
antibacterial activity (in words) [25]: much weaker than the compounds of this invention | MIC [1]: 6.25 µg/mL (≈ 20.6 µM) | MIC (Proteus mirabilis, 1287 [2]): 6.25 µg/mL (≈ 20.6 µM) | MIC [3]: 6.25 µg/mL (≈ 20.6 µM) | MIC ([4]; Enterobacter cloacae, 12001, 18 h): 1.56 µg/mL (≈ 5.14 µM) | MIC [24]: 100 µg/mL (≈ 330 µM) | MIC (Escherichia coli NIHJ [5]; Escherichia coli, 18 h): 1.56 µg/mL (≈ 5.14 µM) | MIC [6]: 1.56 µg/mL (≈ 5.14 µM) | MIC (Proteus vulgaris, 3167 [7]; Proteus vulgaris, 3167, 18 h): 1.56 µg/mL (≈ 5.14 µM) | MIC [8]: 25 µg/mL (≈ 82.4 µM) | MIC [9]: 12.5 µg/mL (≈ 41.2 µM) | MIC [10]: > 100 µg/mL | MIC [11]: 6.25 µg/mL (≈ 20.6 µM) | toxicity (in words) (mice): low toxicity
